# Values quoted from earlier work in patent publication US20250367260A1, “TIRZEPATIDE COMPOSITIONS AND PREPARATION METHOD” (Galenicum Health S.L.U., priority 2024, published 2025).
row,Structure (SMILES),pKa
1,"O=S(=O)(O)CC(O)CN(CCO)CCO (stereo not drawn) [DIPSO, 3-(N,N-Bis[2-hydroxyethyl]amino)-2-hydroxypropanesulfonic acid]",≈ 7.6
2,"O=S(=O)(O)CCNC(CO)(CO)CO [TES, N-[Tris(hydroxymethyl)methyl]-2-aminoethanesulfonic acid]",≈ 7.4
3,"O=S(=O)(O)CC(O)CNC(CO)(CO)CO (stereo not drawn) [TAPSO, 3-[N-Tris(hydroxymethyl)methylamino]-2-hydroxypropanesulfonic acid]",≈ 7.6
4,"O=C(O)CNC(CO)(CO)CO [Tricine, N-tris(hydroxymethyl)methylglycine]",≈ 8.2

# More lines, now with the values ahead:
row,pKa,Structure (SMILES)
1,≈ 8.1,"O=S(=O)(O)CCCN1CCN(CCO)CC1 [HEPPS, 4-(2-Hydroxyethyl)-1-piperazinepropanesulfonic acid]"
2,≈ 7.5,"O=S(=O)(O)CCN1CCN(CCO)CC1 [HEPES, 4-(2-hydroxyethyl)-1-piperazineethanesulfonic acid]"
